This passage reports IC50 and EC50 results from patent publication US12331044B2, “Inhibitors of histone deacetylase useful for the treatment or prevention of HIV infection” (Merck Sharp & Dohme LLC, priority 2018, dated 2025).

Like-named read-outs stand apart in the source and are kept apart here.

Experiment [1] addresses human HDAC3/SMRT heterodimer (Homo sapiens (Human), UniProt O15379).
The target in experiment [2] is human HDAC8 (Homo sapiens (Human), UniProt Q9BY41). Kind of experiment: HDAC8 inhibition assay (modified FLUOR DE LYS, 384-well). The experiment is classed as biochemical. As to conditions: […] enzyme, 200 μM substrate BML-KI178, 3 h pre-incubation; read-out: HDAC8 IC50.
Experimental: The histone deacetylase activities of HDAC1, HDAC2, HDAC3, HDAC6, and HDAC8 were measured in modified FLUOR DE LYS assays in 384-well format. In this assay, HDAC enzymes are initially incubated with an F-acetyl (or -trifluoroacetyl)-L-lysine-containing substrate with a C-terminal amide having aminomethylcoumarin as the amine component. HDACs cleave the F-acetyl group, rendering the resulting product susceptible to AMC cleavage by trypsin. The released AMC is then detected by its fluorescence. […] All steps were performed at room temperature (23° C.). The assay was performed by pre-incubating serial dilutions of test compounds with the target HDAC prior to initiation with substrate. […] Final conditions used for each assay were: 1. […] The reactions were stopped and developed by addition of 30 ul of HDAC developer solution containing a saturating level of HDAC inhibitor as follows: 1. […] For data analysis, background subtracted product (fluorescence) vs. time data for each inhibitor concentration was fitted using a 4-parameter fit.
The target in experiment [3] is human HDAC2 (Homo sapiens (Human), UniProt Q92769). Kind of experiment: HDAC2 inhibition assay (modified FLUOR DE LYS, 384-well). The experiment is classed as biochemical. As to conditions: […] enzyme, 40 μM substrate BML-KI104, 3 h pre-incubation; read-out: HDAC2 IC50.
The test system of experiment [4] is KARN cells (Jurkat 2C4). The experiment in a line: cells. As to conditions: Homo sapiens.
Experiment [5] deals with HDAC6 (Homo sapiens (Human), UniProt Q9UBN7).
Experiment [6] has as its target human HDAC1 (Homo sapiens (Human), UniProt Q13547).
[7] abbreviates: read-out: Karn EC50 nM 0.1% NHS, 0.1% normal human serum, luciferase induction, 2 μM SAHA = 100%.
The mark [8] stands for this setting: read-out: Karn EC50 nM 5% NHS, 5% normal human serum, luciferase induction, 2 μM SAHA = 100%.

Chain of HDAC6 (Q9UBN7 whole entry): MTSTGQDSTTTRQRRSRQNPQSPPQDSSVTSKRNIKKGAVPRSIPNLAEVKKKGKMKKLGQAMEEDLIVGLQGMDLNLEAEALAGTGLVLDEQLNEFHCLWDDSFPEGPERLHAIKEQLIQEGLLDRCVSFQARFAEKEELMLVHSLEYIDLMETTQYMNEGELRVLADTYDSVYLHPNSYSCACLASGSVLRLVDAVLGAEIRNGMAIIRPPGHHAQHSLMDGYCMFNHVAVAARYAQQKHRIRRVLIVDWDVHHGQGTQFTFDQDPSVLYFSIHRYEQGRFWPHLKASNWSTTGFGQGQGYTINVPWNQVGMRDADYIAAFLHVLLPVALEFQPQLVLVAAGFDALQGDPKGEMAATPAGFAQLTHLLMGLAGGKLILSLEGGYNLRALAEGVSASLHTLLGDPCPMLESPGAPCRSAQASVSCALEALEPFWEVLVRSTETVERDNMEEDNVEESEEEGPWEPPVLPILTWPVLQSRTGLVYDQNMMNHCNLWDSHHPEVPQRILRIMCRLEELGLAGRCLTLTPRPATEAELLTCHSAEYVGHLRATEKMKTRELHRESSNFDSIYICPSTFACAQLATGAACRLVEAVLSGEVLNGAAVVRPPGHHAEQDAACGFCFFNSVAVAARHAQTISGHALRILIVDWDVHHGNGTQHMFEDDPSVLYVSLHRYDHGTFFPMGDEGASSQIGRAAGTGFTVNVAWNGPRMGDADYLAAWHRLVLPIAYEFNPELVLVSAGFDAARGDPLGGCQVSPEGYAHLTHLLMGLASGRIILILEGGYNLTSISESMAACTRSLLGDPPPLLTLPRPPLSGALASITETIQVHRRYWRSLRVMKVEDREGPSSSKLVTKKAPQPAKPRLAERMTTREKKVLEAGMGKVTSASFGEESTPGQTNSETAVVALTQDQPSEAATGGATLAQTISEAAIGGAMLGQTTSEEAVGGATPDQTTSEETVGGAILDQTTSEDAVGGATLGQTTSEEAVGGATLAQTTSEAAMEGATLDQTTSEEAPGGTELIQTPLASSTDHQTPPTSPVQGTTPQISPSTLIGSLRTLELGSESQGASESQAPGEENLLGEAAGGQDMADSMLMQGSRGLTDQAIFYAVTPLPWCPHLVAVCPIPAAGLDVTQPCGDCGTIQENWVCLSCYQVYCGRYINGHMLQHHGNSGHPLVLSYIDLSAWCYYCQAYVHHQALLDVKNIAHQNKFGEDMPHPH
Chain of human HDAC3/SMRT heterodimer (O15379 whole entry): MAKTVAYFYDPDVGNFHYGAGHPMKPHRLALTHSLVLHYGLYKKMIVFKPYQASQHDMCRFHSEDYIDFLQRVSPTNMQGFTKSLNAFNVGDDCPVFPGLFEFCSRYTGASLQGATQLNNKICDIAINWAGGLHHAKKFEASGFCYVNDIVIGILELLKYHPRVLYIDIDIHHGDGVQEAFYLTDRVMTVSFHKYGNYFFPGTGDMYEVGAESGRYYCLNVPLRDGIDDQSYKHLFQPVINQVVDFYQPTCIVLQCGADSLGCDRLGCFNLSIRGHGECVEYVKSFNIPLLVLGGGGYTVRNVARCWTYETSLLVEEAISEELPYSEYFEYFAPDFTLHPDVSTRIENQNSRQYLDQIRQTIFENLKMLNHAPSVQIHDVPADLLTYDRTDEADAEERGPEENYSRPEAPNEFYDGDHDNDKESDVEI
Chain of human HDAC3/SMRT heterodimer (Q9Y618 1-899 partner): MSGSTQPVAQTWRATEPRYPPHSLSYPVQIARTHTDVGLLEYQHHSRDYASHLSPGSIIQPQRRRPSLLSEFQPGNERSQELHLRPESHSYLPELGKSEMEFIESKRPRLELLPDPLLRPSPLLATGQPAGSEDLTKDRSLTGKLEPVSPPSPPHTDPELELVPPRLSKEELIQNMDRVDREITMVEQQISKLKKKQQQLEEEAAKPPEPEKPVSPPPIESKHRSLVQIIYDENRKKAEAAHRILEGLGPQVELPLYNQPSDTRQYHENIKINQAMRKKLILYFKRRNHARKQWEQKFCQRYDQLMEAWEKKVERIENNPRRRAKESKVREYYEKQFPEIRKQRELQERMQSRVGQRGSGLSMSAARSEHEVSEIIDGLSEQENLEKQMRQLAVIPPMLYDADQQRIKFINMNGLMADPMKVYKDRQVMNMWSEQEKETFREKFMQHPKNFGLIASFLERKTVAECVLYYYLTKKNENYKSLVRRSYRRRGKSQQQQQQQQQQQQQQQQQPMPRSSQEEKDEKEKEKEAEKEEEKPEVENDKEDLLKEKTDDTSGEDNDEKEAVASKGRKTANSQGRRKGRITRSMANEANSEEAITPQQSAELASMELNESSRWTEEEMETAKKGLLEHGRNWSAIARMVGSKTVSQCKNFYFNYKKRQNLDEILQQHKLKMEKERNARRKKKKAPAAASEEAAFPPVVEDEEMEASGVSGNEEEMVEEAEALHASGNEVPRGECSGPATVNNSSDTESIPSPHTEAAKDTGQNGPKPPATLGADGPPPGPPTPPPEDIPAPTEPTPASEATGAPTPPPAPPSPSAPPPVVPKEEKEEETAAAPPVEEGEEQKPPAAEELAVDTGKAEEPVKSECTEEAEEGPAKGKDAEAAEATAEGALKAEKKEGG
Chain of human HDAC1 (Q13547 whole entry): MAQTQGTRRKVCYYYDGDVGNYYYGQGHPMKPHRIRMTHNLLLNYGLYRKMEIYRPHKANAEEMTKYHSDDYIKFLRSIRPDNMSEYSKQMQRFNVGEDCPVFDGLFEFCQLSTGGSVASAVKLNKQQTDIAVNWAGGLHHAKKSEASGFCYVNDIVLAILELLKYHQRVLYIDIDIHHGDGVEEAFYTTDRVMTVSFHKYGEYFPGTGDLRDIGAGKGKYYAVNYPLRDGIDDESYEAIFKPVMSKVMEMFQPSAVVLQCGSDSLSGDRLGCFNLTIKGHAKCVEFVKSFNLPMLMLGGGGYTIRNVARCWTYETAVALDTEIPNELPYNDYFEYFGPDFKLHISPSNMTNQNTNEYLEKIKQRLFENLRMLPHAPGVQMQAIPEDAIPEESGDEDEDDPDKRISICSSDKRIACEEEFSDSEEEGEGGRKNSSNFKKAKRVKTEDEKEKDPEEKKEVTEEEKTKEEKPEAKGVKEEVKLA
Chain of human HDAC8 (Q9BY41 whole entry): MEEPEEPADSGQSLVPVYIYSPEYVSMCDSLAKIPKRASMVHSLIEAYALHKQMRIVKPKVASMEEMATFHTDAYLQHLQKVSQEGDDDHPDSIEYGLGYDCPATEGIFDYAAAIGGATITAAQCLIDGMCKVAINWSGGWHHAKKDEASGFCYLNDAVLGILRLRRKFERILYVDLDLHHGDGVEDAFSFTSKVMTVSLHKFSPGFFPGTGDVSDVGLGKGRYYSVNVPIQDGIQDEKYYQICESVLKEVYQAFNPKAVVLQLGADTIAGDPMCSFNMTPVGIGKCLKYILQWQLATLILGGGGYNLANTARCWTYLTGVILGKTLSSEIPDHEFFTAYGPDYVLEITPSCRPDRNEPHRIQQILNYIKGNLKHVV
Chain of human HDAC2 (Q92769 whole entry): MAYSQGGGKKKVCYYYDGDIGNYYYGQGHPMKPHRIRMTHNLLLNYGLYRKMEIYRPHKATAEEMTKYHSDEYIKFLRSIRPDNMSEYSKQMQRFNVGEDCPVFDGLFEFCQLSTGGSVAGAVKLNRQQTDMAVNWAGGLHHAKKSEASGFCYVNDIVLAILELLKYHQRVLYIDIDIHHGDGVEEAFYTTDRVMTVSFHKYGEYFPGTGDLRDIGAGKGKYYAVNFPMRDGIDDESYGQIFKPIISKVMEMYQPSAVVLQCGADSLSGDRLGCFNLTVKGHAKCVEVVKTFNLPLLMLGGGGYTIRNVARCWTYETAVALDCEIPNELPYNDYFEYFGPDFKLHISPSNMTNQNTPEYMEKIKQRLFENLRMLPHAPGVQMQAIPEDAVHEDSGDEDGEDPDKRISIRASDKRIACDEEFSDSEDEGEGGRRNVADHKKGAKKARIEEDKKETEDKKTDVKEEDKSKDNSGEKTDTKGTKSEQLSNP

Take `CN1CCC(C(=O)N[C@@H](CCCCCC(=O)c2nccs2)c2nc(-c3ccc(F)cc3)c[nH]2)CC1` [Example 6, (S)-N-(1-(4-(4-fluorophenyl)-1H-imidazol-2-yl)-7-oxo-7-(thiazol-2-yl)heptyl)-1-methylpiperidine-4-carboxamide]: the IC50 in experiment [1] was found to be 1.5 nM; in experiment [2] it was 55 nM; in experiment [3], 14 nM; in experiment [5], 45 µM; in experiment [6], 2.9 nM. The figures for the EC50 in experiment [4] (setting [7]) and in experiment [4] (setting [8]) were 87 nM and 160 nM, respectively.

As to `N[C@@H](CCCCCC(=O)c1ncco1)c1nc(-c2ccc3nn(C4CC4)cc3c2)c[nH]1` [Example 14], the IC50 in experiment [1] was found to be 1.1 nM; in experiment [2], 3100 nM; in experiment [3], 4.5 nM; in experiment [5] it was 45 µM; in experiment [6] it was 0.9 nM. The figures for the EC50 in experiment [4] (setting [7]) and in experiment [4] (setting [8]) were 390 nM and 270 nM, respectively.

Regarding `COc1nc2ccccc2cc1-c1c[nH]c([C@@H](N)CCCCCC(=O)c2ncco2)n1` [Example 15], the IC50 in experiment [1] was 7.3 nM; in experiment [2] it was 720 nM; in experiment [3], 18 nM; in experiment [5], 40 µM; in experiment [6], 5.2 nM. Besides, the EC50 in experiment [4] (setting [7]) is 180 nM; in experiment [4] (setting [8]), 670 nM.

As for `CC(C)n1ccc2cc(-c3cnc([C@@H](N)CCCCCC(=O)c4ncco4)[nH]3)ccc2c1=O` [Example 17], the IC50 turned out to be 4.1 nM in experiment [1]; 2900 nM in experiment [2]; 17 nM in experiment [3]; 45 µM in experiment [5]; 2.1 nM in experiment [6]. Also, the values for the EC50 in experiment [4] (setting [7]) and in experiment [4] (setting [8]) were 650 nM and 590 nM, respectively.

Take `N[C@@H](CCCCCC(=O)c1ncco1)c1ncc(-c2ccc3nc(N4CCCC4)ccc3c2)[nH]1` [Example 19]: the IC50 in experiment [1] was 1.5 nM; in experiment [2], 3600 nM; in experiment [3] it was 9.4 nM; in experiment [5] it was > 1.5 µM; in experiment [6], 2 nM. The figures for the EC50 in experiment [4] (setting [7]) and in experiment [4] (setting [8]) were 210 nM and 420 nM, respectively.

For the compound `COc1cc2c(ccc(=O)n2C)cc1-c1cnc([C@@H](N)CCCCCC(=O)c2ncco2)[nH]1` [Example 21], the IC50 in experiment [1] was 1.5 nM; in experiment [2], 490 nM; in experiment [3] it was 8.4 nM; in experiment [5] it was > 4.5 µM; in experiment [6] it was 1.9 nM. Moreover, the EC50 in experiment [4] (setting [7]) and in experiment [4] (setting [8]) was 110 nM throughout.

On to `Cc1ccc2cc(-c3cnc([C@@H](N)CCCCCC(=O)c4ncco4)[nH]3)c(Cl)cc2n1` [Example 22], for which the IC50 in experiment [1] worked out at 6.7 nM; in experiment [2], 1500 nM; in experiment [3], 38 nM; in experiment [5], 45 µM; in experiment [6] it was 10 nM. Besides, the EC50 in experiment [4] (setting [7]) was 130 nM; in experiment [4] (setting [8]), 290 nM.

With `CCn1cc(-c2ccc3nc(C)ccc3c2)nc1[C@@H](N)CCCCCC(=O)c1ncco1` [Example 30, (S)-7-amino-7-(1-ethyl-4-(2-methylquinolin-6-yl)-1H-imidazol-2-yl)-1-(oxazol-2-yl)heptan-1-one], the IC50 turned out to be 48 nM in experiment [1]; 21000 nM in experiment [2]; 230 nM in experiment [3]; 38.8 µM in experiment [5]; 49 nM in experiment [6]. In addition, the EC50 in experiment [4] (setting [7]) was found to be 2500 nM; in experiment [4] (setting [8]), 4000 nM.

Regarding `CN1CCC2(CC1)C[C@@H]2C(=O)N[C@@H](CCCCCC(=O)c1ccon1)c1nc(-c2ccccc2F)c[nH]1` [Example 39], the IC50 worked out at 0.13 nM in experiment [1]; 2 nM in experiment [2]; 0.57 nM in experiment [3]; 45 µM in experiment [5]; 0.1 nM in experiment [6]. The EC50 turned out to be 3 nM in experiment [4] (setting [7]) and 4 nM in experiment [4] (setting [8]).

As for `COc1nc2ccccc2cc1-c1c[nH]c([C@H](CCCCCC(=O)c2ccon2)NC(=O)C2CCN(C)CC2)n1` [Example 40], the IC50 in experiment [1] turned out to be 1.5 nM; in experiment [2], 3.3 nM; in experiment [3], 1.8 nM; in experiment [5] it was 2 µM; in experiment [6], 1.5 nM. In addition, the results for the EC50 in experiment [4] (setting [7]) and in experiment [4] (setting [8]) were 15 nM and 58 nM, respectively.

For `COc1nc2ccccc2cc1-c1cnc([C@H](CCCCCC(=O)c2ncco2)NC(=O)CN(C)C)[nH]1` [Example 41], the IC50 in experiment [1] is 0.71 nM; in experiment [2] it was 65 nM; in experiment [3] it was 2.6 nM; in experiment [5] it was 3.3 µM; in experiment [6], 0.39 nM. For the same compound, the EC50 in experiment [4] (setting [7]) came to 16 nM; in experiment [4] (setting [8]) it was 140 nM.

Take `COc1nc2ccccc2cc1-c1cnc([C@H](CCCCCC(=O)c2ncco2)NC(=O)c2cncs2)[nH]1` [Example 42]: the IC50 came out at 1.5 nM in experiment [1]; 27 nM in experiment [2]; 5.4 nM in experiment [3]; 13 µM in experiment [5]; 1.7 nM in experiment [6]. For the same compound, the results for the EC50 in experiment [4] (setting [7]) and in experiment [4] (setting [8]) were 52 nM and 340 nM, respectively.

On to `Cc1ccc2cc(-c3c[nH]c([C@H](CCCCCC(=O)c4ccon4)NC(=O)[C@H]4CC45CCN(C)CC5)n3)ccc2n1` [Example 44], for which the IC50 in experiment [1] was found to be 0.26 nM; in experiment [2], 5.7 nM; in experiment [3], 0.97 nM; in experiment [5], 45 µM; in experiment [6] it was 0.24 nM. In addition, the half-maximal effective concentration (EC50) in experiment [4] (setting [7]) stood at 9.5 nM; in experiment [4] (setting [8]), 9.1 nM.

In the case of `Cc1cc(C(=O)CCCCC[C@H](N)c2nc(-c3ccccc3F)c[nH]2)no1` [Example 45], the IC50 in experiment [1] amounted to 19 nM; in experiment [2], 1200 nM; in experiment [3], 76 nM; in experiment [5], 45 µM; in experiment [6], 8.9 nM. For the same compound, the half-maximal effective concentration (EC50) came out at 460 nM in experiment [4] (setting [7]) and 1900 nM in experiment [4] (setting [8]).

Regarding `CN(C)CC(=O)N[C@@H](CCCCCC(=O)c1ncco1)c1ncc(-c2ccc3c(ccc(=O)n3C)c2)[nH]1` [Example 46], the IC50 in experiment [1] was 1.5 nM; in experiment [2], 91 nM; in experiment [3] it was 9.6 nM; in experiment [5], 45 µM; in experiment [6], 1.7 nM. Moreover, the EC50 amounted to 31 nM in experiment [4] (setting [7]) and 44 nM in experiment [4] (setting [8]).

Consider `Cc1cc(C(=O)CCCCC[C@H](NC(=O)CN(C)C)c2nc(-c3ccccc3F)c[nH]2)no1` [Example 48], for which the IC50 in experiment [1] worked out at 0.15 nM; in experiment [3], 1 nM; in experiment [5], 45 µM; in experiment [6], 0.18 nM. Further, the EC50 stood at 28 nM in experiment [4] (setting [7]) and 69 nM in experiment [4] (setting [8]).

On to `COc1nc2ccccc2cc1-c1cnc([C@H](CCCCCC(=O)c2ncco2)NC(=O)CCCN(C)C)[nH]1` [Example 55], for which the IC50 in experiment [1] came out at 0.48 nM; in experiment [3] it was 2.1 nM; in experiment [5] it was 0.14 µM; in experiment [6] it was 0.3 nM. Also, the EC50 in experiment [4] (setting [7]) stood at 12 nM; in experiment [4] (setting [8]), 32 nM.

For `NC(CCCCCC(=O)c1ccon1)c1cnn(-c2ccc(F)cc2)c1` (stereo not shown) [Example 121, 7-amino-7-[1-(4-fluorophenyl)-1H-pyrazol-4-yl]-1-isoxazol-3-ylheptan-1-one], the IC50 in experiment [1] amounted to 14 nM; in experiment [5] it was 45 µM; in experiment [6], 15 nM.

For `N[C@@H](CCCCCC(=O)c1ncco1)c1ncc(-c2cccc(F)c2F)[nH]1` [Example 136, (7S)-7-amino-7-[5-(2,3-difluorophenyl)-1H-imidazol-2-yl]-1-(1,3-oxazol-2-yl)heptan-1-one], the IC50 was 100 nM in experiment [1]; > 900 nM in experiment [2]; 380 nM in experiment [3]; > 0.9 µM in experiment [5]; 110 nM in experiment [6].

For `N[C@@H](CCCCCC(=O)c1ncco1)c1ncc(-c2cc(C(F)(F)F)ccc2F)[nH]1` [Example 137, (7S)-7-amino-7-{5-[2-fluoro-5-(trifluoromethyl)phenyl]-1H-imidazol-2-yl}-1-(1,3-oxazol-2-yl)heptan-1-one], the IC50 in experiment [1] was 45 nM; in experiment [2], > 900 nM; in experiment [3] it was 240 nM; in experiment [5], > 0.9 µM; in experiment [6], 61 nM.

Turning to `COc1nc2ccccc2cc1-c1cnc([C@H](CCCCCC(=O)c2ncco2)NC(=O)C2(c3cnccn3)CC2)[nH]1` [Example 155, N-[(1S)-1-[5-(2-methoxyquinolin-3-yl)-1H-imidazol-2-yl]-7-(1,3-oxazol-2-yl)-7-oxoheptyl]-1-pyrazin-2-ylcyclopropanecarboxamide], the IC50 was 1.3 nM in experiment [1], 53 nM in experiment [2], 5.3 nM in experiment [3] and 0.81 nM in experiment [6]. Besides, the results for the EC50 in experiment [4] (setting [7]) and in experiment [4] (setting [8]) were 50 nM and 600 nM, respectively.

Regarding `COc1cc2nc(C)ccc2cc1-c1cnc([C@H](CCCCCC(=O)c2ncco2)NC(=O)CN2CCNCC2=O)[nH]1` [Example 159, N-[(1S)-1-[5-(7-methoxy-2-methylquinolin-6-yl)-1H-imidazol-2-yl]-7-(1,3-oxazol-2-yl)-7-oxoheptyl]-2-(2-oxopiperazin-1-yl)acetamide], the IC50 amounted to 1.7 nM in experiment [1], 5.8 nM in experiment [3], 2.9 µM in experiment [5] and 0.82 nM in experiment [6]. Moreover, the EC50 in experiment [4] (setting [7]) was determined as 1500 nM; in experiment [4] (setting [8]), 2900 nM.

With `COc1cc2nc(C)ccc2cc1-c1cnc([C@H](CCCCCC(=O)c2ncco2)NC(=O)c2cc3n(n2)CCCC3)[nH]1` [Example 164], the IC50 was 0.87 nM in experiment [1], 18 nM in experiment [3], > 0.9 µM in experiment [5] and 3.3 nM in experiment [6]. The EC50 in experiment [4] (setting [7]) worked out at 85 nM; in experiment [4] (setting [8]), 290 nM.

For orientation: IC50 means the concentration that inhibits the measured activity by half. As usually defined, the EC50 is the concentration that produces a half-maximal response.
